Laboratory results: patent US12403184B2, “Compositions and methods for treating neurodegenerative disroders” (priority 2018, dated 2025)
Where no end group is shown, it is not given here.

Experiments:
[1] = target: T1, Drp1/ATAD3A (Mus musculus, UniProt Q925I1); test: Immunoprecipitation of Drp1/ATAD3A binding in striatal extracts of treated HD R6/2 mice; format: in vivo; details: striatal extracts of HD R6/2 mice, 1 mg/kg/day from 6 to 12 weeks
T1 construct: The total lysates of cells or mouse striatum were subject to IP analysis; endogenous in cells; host or cells: HdhQ7 / HdhQ111 mouse striatal cells; wild-type mouse striatal cells exposed to 3-NP
T1 sequence (Q925I1 2-591 limits assumed): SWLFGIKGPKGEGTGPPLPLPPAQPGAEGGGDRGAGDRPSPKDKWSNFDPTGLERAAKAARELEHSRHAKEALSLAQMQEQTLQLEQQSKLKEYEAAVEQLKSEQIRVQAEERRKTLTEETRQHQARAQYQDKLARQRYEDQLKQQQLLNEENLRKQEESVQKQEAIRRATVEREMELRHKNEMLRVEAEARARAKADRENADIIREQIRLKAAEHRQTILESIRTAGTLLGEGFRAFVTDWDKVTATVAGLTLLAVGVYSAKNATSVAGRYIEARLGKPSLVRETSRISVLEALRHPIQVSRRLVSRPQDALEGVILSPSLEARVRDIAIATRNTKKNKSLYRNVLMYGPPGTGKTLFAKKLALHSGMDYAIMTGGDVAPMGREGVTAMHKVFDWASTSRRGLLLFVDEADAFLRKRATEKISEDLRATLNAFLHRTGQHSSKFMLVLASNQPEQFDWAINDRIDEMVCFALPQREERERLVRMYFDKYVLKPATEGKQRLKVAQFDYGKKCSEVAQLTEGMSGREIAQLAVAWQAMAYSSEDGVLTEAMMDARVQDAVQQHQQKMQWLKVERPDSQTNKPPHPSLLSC
Experimental: Cells and mouse brain tissues were harvested and lysed in total lysis buffer ([…], pH 7.9, […], […], 1% Triton X-100, and protease inhibitor cocktail) for 30 mins on ice and centrifuged at 12,000×g for 10 min at 4° C. The supernatants were incubated with the indicated primary antibodies or control IgG (sc-2025 and sc-2027, Santa Cruz Biotechnology) overnight at 4° C., followed by incubation with protein A/G beads (sc-2003, Santa Cruz Biotechnology) for 2 h at 4° C. The immunoprecipitates were washed with lysis buffer three times for a total of 30 min and then subject to WB analysis.
(§1) Systemic peptide treatment in HD mice. All randomization and peptide treatments were prepared by an experimenter not associated with behavioral and neuropathology analysis. Male R6/2 mice (Tg) and their age-matched wild-type littermates (Wt) (6-week-old) were implanted with a 28-day osmotic pump (Alzet, Cupertino CA, Model 2004) containing TAT control peptide or DA1 peptide, which delivered peptides at a rate of 1 mg/kg/day. Male YAC128 mice (Tg) and their age-matched wild-type littermates (WT) were treated with TAT control peptide or DA1 peptide (1 mg/kg/day) by Alzet osmotic pump starting from the age of 3 months. The pump was replaced once every month.

[2] = system: Drp1; test: Drp1 mitochondrial level and Drp1 oligomerization in striatum of treated HD mice; format: in vivo, mouse; details: for Drp1 translocation to the mitochondria: 1 mg/kg/day
Experimental: Cells were washed with cold phosphate-buffered saline (PBS) and incubated on ice in mitochondrial lysis buffer (250 mM sucrose, 20 mM HEPES-NaOH, pH 7.5, 10 mM KCl, 1.5 mM MgCl2, 1 mM EDTA, 1 mM EGTA, protease inhibitor cocktail, and phosphatase inhibitor cocktail) for 30 min. The cells were scraped and then disrupted 15 times by repeated aspiration through a 25-gauge needle. Mouse brains were minced and homogenized in mitochondrial lysis buffer to release mitochondria. The homogenates were spun at 800×g for 10 min at 4° C., and the resulting supernatants were spun at 12,000×g for 20 min at 4° C. The pellets were washed with lysis buffer and spun at 12,000×g again for 20 min at 4° C. The final pellets were suspended in lysis buffer containing 1% Triton X-100 and were mitochondrial-rich lysate fractions. The mitochondrial protein voltage-dependent anion channel (VDAC) was used as a loading control.
Protein concentration was measured by protein assay dye reagents (Bio-rad). The protein was resuspended in Laemmli buffer, loaded on SDS-PAGE, and transferred onto nitrocellulose membranes. Membranes were probed with the indicated antibodies, followed by visualization with ECL. Representative blots have been cropped for presentation.
as §1

[3] = system: HdhQ111 cells; test: Mitochondrial superoxide production (MitoSOX) in striatal cells; format: cell-based, mouse; details: relative to TAT
Experimental: To examine mitochondrial superoxide production, the cells were stained with MitoSOX (Invitrogen, 5 μM for 10 min) at 37° C. The cells were then washed with PBS three times and mounted for the image analysis. At least 150 cells/group were counted and quantitated.

[4] = system: YAC128 mice; test: Locomotion activity in YAC128 mice; format: in vivo, mouse; details: 1 mg/kg/day from 3 to 12 months, effect from 6 until 12 months of age
Text: YAC128 [FVB-Tg(YAC128)53Hay/J, JAX stock number: 004938] breeders (FVB/N genetic background) were purchased from Jackson Laboratories. The YAC128 mice contain a full-length human huntingtin gene modified with a 128 CAG repeat expansion in exon 1. The mice were mated, bred, and genotyped in the animal facility of Case Western Reserve University. Male mice at the ages of 2, 3, 6, 9, and 12 months were used in the study.
as §1
Gross locomotor activity was assessed in R6/2 mice and age-matched wild-type littermates at the ages of 12 weeks, and in YAC128 mice and age-matched wildtype littermates at the ages of 2, 3, 6, 9, and 12 months. […] Distance moved, horizontal and vertical activities were recorded. […]

With “YGRKKRRQRRRGGEDKRKT-NH2 [DA1, YGRKKRRQRRR-GG-EDKRKT-NH2]” the “binding of Drp1/ATAD3A” value [1] was “significantly reduced”, the “Drp1 translocation to the mitochondria” value ([2]; striatum of HD R6/2 mice) was “abrogated” and the Drp1 polymerization ([2]; striatum of HD R6/2 mice, 12 weeks old) was “abrogated”. For the same substance, the “Drp1 translocation to the mitochondria” value ([2]; striatum of HD YAC128 mice) was “abrogated”, the Drp1 polymerization ([2]; striatum of HD YAC128 mice, 12 months old) was “abrogated” and the “mitochondrial oxidative stress (mitoROS)” value [3] was “suppressed”. For the same substance, the general movement activity [4] was “improved”.
